Values quoted from earlier work in patent publication US20150283242A1, “EFFECTIVE PHARMACEUTICAL CARRIER FOR POORLY BIOAVAILABLE DRUGS” (Hovid Berhad, priority 2007, published 2015).

log P (partition coefficient) | SMILES
more than 10 | COC1=C(OC)C(=O)C(C/C=C(\C)CC/C=C(\C)CC/C=C(\C)CC/C=C(\C)CC/C=C(\C)CC/C=C(\C)CC/C=C(\C)CC/C=C(\C)CC/C=C(\C)CCC=C(C)C)=C(C)C1=O [ubiquonone]
2.42 | CC[C@H](C)C(=O)O[C@H]1C[C@H](O)C=C2C=C[C@H](C)[C@H](CC[C@@H](O)C[C@@H](O)CC(=O)O)[C@H]21 [pravastatin]
4.77 | Cc1ccc(C)c(OCCCC(C)(C)C(=O)O)c1 [gemfibrozil]
4.27 | COc1ccc2c(c1)c(CC(=O)O)c(C)n2C(=O)c1ccc(Cl)cc1 [indomethacin]
